The values that follow come from ChEMBL document CHEMBL5465560, “Selectivity Literature for EUbOPEN Chemogenomic Library” (2024).

The target in assay [1] is Mitogen-activated protein kinase 1 (Homo sapiens, UniProt P28482). Kind of assay: Selectivity interaction (Rxn Biology Kinase assay) EUB0001632a MAPK1. To be noted: at 10 µM.
Assay [2] concerns the target cAMP-dependent protein kinase catalytic subunit beta (Homo sapiens) (UniProt P22694). Kind of assay: Selectivity interaction (LanthaScreen Eu Kinase Binding Assay) EUB0001632a PRKACB. To be noted: at 10 µM.
For assay [3], the target named is Phosphatidylinositol 4,5-bisphosphate 3-kinase catalytic subunit gamma isoform (Homo sapiens) (UniProt P48736). Kind of assay: Selectivity interaction (Ambit KINOMEscan and KiNATiv profiling in Jurkat cells) EUB0000090b PIK3CG. The assay is classed as cell-based. To be noted: at 1 µM.
Assay [4] deals with T1, 3-phosphoinositide-dependent protein kinase 1 (Homo sapiens) (UniProt O15530).
T1 sequence (whole entry): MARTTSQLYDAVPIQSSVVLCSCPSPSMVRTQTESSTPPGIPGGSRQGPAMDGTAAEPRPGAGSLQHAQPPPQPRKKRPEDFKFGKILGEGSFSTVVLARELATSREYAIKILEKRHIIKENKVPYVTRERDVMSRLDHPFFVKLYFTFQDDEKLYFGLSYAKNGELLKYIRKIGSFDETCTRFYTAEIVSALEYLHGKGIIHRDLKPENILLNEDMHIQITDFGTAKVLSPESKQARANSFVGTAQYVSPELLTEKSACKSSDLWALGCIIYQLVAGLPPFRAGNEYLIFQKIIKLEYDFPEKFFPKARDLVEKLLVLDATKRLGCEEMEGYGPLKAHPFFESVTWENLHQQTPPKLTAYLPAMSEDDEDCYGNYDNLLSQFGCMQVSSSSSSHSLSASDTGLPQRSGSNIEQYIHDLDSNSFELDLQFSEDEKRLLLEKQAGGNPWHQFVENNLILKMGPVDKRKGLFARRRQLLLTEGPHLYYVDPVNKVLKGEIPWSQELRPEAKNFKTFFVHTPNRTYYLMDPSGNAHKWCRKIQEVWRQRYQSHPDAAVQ
Kind of assay: Selectivity interaction (KinomeScan (DiscoverX)) EUB0001079a PDPK1. As to conditions: at 1 µM.

The target in assay [5] is Sigma intracellular receptor 2 (Homo sapiens) (UniProt Q5BJF2). Kind of assay: Selectivity interaction (GPCR panel (PDSP screen)) EUB0001079a TMEM97. To be noted: at 10 µM.
In assay [6] the target is SRSF protein kinase 2 (Homo sapiens) (UniProt P78362). The assay can be described thus: Selectivity interaction (KinomeScan (DiscoverX)) EUB0001619a SRPK2. To be noted: at 1 µM.
The target in assay [7] is Dual specificity mitogen-activated protein kinase kinase 2 (Homo sapiens) (UniProt P36507). The assay can be described thus: Selectivity interaction (Kinase panel (Invitrogen)) EUB0000639a MAP2K2. To be noted: at 200 nM.
The target in assay [8] is SRSF protein kinase 2 (Homo sapiens) (UniProt P78362). The assay can be described thus: Selectivity interaction (Kinase panel (Invitrogen)) EUB0000639a SRPK2. As to conditions: at 200 nM.
In assay [9] the test system is Phosphatidylinositol 4,5-bisphosphate 3-kinase catalytic subunit alpha isoform (Homo sapiens), P42336 [I800L]. The assay can be described thus: (§1) Selectivity interaction (KinomeScan (DiscoverX)) EUB0000695a PIK3CA. As to conditions: at 100 nM.
Assay [10] has as its system Phosphatidylinositol 4,5-bisphosphate 3-kinase catalytic subunit alpha isoform (Homo sapiens), P42336 [H1047Y]. The description is as §1. To be noted: at 100 nM.
For assay [11], the system named is Phosphatidylinositol 4,5-bisphosphate 3-kinase catalytic subunit alpha isoform (Homo sapiens), P42336 [C420R]. The assay is described as §1. As to conditions: at 100 nM.
The test system of assay [12] is Phosphatidylinositol 4,5-bisphosphate 3-kinase catalytic subunit alpha isoform (Homo sapiens), P42336 [Q546K]. The assay is described as §1. As to conditions: at 100 nM.
The test system of assay [13] is Phosphatidylinositol 4,5-bisphosphate 3-kinase catalytic subunit alpha isoform (Homo sapiens), P42336 [M1043I]. The assay is described as §1. To be noted: at 100 nM.
The subject of assay [14] is Phosphatidylinositol 4,5-bisphosphate 3-kinase catalytic subunit alpha isoform (Homo sapiens), P42336 [E545A]. The description is as §1. As to conditions: at 100 nM.
The target in assay [15] is Phosphatidylinositol 4,5-bisphosphate 3-kinase catalytic subunit alpha isoform (Homo sapiens) (UniProt P42336). Described as §1. As to conditions: at 100 nM.
The target of assay [16] is Dual specificity protein kinase CLK1 (Homo sapiens, UniProt P49759). Kind of assay: Selectivity interaction (KinomeScan (DiscoverX)) EUB0000092b CLK1. To be noted: at 10 µM.
In assay [17] the target is Serine/threonine-protein kinase N2 (Homo sapiens, UniProt Q16513). The assay can be described thus: Selectivity interaction (KinomeScan (DiscoverX)) EUB0000045b PKN2.
The target in assay [18] is Phosphatidylinositol 4,5-bisphosphate 3-kinase catalytic subunit beta isoform (Homo sapiens) (UniProt P42338). Kind of assay: Selectivity interaction (KinomeScan (DiscoverX)) EUB0000045b PIK3CB.
For assay [19], the target named is Tyrosine-protein kinase Fer (Homo sapiens) (UniProt P16591). The assay can be described thus: Selectivity interaction (KinomeScan (DiscoverX)) EUB0000595a FER. As to conditions: at 10 µM.
For assay [20], the target named is T2, Tyrosine-protein kinase JAK3 (Homo sapiens) (UniProt P52333).
T2 sequence (whole entry): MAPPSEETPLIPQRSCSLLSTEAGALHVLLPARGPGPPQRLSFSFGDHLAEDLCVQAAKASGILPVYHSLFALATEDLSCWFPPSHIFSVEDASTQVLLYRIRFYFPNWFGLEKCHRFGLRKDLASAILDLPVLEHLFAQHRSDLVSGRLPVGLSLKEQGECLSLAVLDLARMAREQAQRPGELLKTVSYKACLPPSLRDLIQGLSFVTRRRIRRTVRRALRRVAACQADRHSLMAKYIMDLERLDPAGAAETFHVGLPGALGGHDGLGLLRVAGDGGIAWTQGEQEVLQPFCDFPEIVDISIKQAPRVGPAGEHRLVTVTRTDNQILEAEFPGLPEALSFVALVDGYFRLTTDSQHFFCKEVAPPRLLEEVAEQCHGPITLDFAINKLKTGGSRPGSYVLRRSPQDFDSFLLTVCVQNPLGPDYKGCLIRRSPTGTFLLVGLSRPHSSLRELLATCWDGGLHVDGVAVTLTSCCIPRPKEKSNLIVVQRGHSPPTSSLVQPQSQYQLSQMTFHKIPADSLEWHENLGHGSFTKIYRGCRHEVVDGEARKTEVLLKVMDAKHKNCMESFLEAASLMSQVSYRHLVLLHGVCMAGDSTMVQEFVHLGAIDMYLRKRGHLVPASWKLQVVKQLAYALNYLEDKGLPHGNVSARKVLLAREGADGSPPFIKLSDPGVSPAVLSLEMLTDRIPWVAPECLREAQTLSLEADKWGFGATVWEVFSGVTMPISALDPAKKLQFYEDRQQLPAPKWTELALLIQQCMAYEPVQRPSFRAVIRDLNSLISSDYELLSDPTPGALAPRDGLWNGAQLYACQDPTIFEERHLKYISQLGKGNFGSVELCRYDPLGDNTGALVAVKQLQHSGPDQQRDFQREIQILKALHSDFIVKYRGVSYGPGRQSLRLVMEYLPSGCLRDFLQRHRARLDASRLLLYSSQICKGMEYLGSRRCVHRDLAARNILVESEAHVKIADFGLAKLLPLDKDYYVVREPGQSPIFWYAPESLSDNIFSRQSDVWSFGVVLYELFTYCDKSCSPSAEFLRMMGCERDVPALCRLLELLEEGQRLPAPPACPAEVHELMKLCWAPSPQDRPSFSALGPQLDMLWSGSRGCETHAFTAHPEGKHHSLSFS
Kind of assay: Selectivity interaction (KinomeScan (DiscoverX)) EUB0000595a JAK3. As to conditions: at 10 µM.

Chain of Phosphatidylinositol 4,5-bisphosphate 3-kinase catalytic subunit beta isoform (Homo sapiens) (P42338 whole entry, looked up, canonical isoform): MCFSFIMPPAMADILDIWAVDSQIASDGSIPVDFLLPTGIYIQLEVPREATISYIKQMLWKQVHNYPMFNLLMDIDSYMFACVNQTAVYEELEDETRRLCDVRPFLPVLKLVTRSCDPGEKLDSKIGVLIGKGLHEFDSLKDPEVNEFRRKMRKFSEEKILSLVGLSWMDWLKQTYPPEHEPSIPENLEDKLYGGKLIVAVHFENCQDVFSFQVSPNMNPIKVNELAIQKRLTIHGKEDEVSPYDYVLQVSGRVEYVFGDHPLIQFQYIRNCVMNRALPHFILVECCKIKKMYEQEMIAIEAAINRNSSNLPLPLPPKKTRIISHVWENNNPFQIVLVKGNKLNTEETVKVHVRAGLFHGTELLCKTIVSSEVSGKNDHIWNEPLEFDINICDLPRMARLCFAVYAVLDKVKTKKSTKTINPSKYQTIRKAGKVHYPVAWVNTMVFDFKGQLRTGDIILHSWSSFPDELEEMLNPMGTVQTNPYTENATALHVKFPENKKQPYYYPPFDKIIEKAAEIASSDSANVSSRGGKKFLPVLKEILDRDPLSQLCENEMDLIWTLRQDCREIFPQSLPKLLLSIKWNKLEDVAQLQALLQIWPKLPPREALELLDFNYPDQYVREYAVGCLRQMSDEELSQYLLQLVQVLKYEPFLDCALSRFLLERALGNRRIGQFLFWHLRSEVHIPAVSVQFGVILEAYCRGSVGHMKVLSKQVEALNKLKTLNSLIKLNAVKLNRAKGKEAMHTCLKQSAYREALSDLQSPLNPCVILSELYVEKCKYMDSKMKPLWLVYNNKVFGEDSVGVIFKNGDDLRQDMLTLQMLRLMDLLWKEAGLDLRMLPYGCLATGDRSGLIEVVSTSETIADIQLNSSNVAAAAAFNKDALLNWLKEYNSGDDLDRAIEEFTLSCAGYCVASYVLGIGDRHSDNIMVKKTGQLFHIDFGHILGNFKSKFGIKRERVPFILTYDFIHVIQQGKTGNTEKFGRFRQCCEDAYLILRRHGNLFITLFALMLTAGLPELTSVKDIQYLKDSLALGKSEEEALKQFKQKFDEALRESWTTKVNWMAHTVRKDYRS
Chain of SRSF protein kinase 2 (Homo sapiens) (P78362 whole entry, looked up, canonical isoform): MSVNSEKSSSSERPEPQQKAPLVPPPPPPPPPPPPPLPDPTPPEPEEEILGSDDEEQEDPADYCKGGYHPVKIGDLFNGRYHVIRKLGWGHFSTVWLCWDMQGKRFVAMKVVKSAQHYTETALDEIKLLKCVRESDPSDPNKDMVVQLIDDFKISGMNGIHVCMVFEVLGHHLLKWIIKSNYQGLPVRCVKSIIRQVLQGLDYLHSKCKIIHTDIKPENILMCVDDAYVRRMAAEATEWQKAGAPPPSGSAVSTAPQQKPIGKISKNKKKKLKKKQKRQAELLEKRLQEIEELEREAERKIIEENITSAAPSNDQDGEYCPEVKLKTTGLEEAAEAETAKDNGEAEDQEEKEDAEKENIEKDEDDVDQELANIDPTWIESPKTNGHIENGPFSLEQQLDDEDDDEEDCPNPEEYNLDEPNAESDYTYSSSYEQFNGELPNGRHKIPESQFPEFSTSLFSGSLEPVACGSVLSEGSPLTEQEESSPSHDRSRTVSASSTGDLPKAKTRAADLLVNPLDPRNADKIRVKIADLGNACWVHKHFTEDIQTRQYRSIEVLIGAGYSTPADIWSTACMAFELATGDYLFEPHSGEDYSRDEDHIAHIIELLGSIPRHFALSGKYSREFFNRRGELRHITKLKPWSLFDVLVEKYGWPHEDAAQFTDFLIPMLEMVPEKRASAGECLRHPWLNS
Chain of Serine/threonine-protein kinase N2 (Q16513 whole entry, looked up, canonical isoform): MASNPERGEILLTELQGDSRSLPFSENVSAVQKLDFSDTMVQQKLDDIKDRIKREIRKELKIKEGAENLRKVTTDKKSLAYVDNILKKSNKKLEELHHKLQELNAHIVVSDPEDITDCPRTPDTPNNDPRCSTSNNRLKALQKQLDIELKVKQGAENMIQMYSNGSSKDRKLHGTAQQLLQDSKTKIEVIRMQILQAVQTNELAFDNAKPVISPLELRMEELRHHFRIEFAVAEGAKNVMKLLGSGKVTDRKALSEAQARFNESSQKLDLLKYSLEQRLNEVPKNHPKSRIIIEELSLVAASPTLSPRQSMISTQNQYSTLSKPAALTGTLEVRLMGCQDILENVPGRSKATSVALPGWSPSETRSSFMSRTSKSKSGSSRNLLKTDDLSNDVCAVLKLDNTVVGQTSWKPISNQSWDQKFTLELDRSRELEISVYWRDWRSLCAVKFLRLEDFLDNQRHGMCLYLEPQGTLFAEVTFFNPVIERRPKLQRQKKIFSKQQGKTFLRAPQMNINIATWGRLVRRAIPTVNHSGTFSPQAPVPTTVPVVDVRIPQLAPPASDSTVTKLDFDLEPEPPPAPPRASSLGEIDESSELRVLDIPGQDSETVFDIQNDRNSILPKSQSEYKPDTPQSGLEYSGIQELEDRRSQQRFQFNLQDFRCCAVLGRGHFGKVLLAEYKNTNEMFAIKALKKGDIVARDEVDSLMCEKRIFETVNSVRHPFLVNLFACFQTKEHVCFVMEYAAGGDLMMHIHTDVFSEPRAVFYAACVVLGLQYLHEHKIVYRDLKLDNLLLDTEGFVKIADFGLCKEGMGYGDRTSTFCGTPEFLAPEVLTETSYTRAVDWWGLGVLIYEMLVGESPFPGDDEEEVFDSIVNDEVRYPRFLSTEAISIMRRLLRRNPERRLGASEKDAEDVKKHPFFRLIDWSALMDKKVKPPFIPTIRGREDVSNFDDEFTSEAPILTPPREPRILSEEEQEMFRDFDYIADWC
Chain of Sigma intracellular receptor 2 (Homo sapiens) (Q5BJF2 whole entry): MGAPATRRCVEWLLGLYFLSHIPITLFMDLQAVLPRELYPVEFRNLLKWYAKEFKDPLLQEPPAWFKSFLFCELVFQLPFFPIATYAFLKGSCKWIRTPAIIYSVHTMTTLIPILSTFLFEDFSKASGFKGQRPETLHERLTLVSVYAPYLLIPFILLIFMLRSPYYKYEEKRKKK
Chain of Phosphatidylinositol 4,5-bisphosphate 3-kinase catalytic subunit gamma isoform (Homo sapiens) (P48736 whole entry, looked up, canonical isoform): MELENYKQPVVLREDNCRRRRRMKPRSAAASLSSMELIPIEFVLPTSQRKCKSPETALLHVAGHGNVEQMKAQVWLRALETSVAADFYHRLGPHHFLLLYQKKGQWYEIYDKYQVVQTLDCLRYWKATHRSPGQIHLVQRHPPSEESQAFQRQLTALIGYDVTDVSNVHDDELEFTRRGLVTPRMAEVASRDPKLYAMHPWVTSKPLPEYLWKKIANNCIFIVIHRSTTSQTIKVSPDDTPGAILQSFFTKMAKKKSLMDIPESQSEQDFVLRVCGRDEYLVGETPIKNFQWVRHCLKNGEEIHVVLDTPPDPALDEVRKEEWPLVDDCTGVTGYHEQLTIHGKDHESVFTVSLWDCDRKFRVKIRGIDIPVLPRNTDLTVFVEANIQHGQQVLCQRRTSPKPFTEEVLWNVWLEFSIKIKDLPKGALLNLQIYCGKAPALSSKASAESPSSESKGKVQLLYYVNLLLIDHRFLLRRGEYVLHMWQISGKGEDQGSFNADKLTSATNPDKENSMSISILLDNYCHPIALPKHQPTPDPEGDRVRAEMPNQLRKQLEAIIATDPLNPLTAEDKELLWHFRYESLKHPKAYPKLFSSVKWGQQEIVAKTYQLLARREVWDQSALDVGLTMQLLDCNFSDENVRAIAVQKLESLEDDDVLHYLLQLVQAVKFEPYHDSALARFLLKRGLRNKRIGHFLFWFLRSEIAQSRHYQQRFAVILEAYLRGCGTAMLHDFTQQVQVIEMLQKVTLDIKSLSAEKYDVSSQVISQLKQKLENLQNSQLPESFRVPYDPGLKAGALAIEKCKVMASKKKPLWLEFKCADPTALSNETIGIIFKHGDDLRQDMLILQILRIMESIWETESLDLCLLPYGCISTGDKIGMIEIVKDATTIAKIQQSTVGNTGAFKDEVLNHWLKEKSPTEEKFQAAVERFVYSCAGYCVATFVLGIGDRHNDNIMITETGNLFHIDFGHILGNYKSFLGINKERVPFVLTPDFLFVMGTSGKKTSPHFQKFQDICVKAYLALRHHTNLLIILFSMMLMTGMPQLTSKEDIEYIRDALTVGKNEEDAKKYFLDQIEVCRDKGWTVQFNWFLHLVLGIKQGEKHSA
Chain of Phosphatidylinositol 4,5-bisphosphate 3-kinase catalytic subunit alpha isoform (Homo sapiens), P42336 [E545A] (P42336 whole entry E545A, canonical isoform): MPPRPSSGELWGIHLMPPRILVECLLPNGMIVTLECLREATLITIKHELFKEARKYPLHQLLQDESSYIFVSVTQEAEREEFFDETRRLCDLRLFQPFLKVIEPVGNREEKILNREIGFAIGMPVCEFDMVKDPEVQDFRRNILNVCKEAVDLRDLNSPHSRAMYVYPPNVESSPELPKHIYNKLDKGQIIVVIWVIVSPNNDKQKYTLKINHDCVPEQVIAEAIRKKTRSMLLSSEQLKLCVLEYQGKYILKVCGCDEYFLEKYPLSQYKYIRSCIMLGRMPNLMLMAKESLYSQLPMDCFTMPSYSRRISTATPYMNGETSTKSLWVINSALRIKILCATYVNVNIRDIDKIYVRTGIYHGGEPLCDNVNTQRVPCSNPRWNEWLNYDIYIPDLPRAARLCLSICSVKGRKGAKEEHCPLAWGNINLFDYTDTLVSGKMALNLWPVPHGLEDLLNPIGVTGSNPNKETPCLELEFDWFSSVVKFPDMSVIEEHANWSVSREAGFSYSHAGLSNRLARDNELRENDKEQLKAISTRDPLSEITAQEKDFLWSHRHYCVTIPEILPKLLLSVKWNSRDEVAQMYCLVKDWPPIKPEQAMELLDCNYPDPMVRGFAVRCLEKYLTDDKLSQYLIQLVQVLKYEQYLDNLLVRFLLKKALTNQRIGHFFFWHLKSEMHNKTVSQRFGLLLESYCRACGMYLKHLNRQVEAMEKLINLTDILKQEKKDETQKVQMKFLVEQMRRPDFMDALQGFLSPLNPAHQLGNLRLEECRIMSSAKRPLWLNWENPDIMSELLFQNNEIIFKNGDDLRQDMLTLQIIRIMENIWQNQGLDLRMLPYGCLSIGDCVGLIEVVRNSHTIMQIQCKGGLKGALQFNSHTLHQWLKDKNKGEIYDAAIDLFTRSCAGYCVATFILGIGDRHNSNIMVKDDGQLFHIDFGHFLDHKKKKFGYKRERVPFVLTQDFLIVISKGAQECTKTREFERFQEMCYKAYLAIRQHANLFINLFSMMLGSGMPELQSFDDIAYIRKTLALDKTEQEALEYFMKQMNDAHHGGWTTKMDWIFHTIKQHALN

Take `Cn1cc(-n2cnc3c(NCc4nc5cc(Cl)c(Cl)cc5[nH]4)nc(N4CCOCC4)nc32)cn1`: the % of inhibition turned out to be 5.79% in assay [1] and 4.17% in assay [2].

On to `CN(C)C/C=C/C(=O)Nc1ccc(C(=O)N2CCCC(Nc3ncc(Cl)c(-c4c[nH]c5ccccc45)n3)C2)cc1` (configuration not stated), for which the % of control in assay [3] was found to be 92%.

As for `Nc1cnc(N2CCc3cc(S(=O)(=O)Nc4c(F)cc(Cl)cc4F)cc(N4CCCC4=O)c32)nc1` [TP-020n], in assay [4], the % of control was 98%. Further, the % of inhibition in assay [5] was -12%.

Compound `N#Cc1cccc(-c2c[nH]c3ncnc(N4CCOCC4)c23)c1` displayed a % of control in [6] of 70%.

Consider `CC[C@@H]1[C@H](F)C(=O)N[C@@H]1COc1nccc2cc(C(N)=O)c(OC)cc12` [ZIMLOVISERTIB], for which the results for the % of inhibition in assay [7] and in [8] were 13.2% and -1.85%, respectively.

Turning to `Cc1cc(F)c(C(=O)Nc2cccc(-c3nncn3C(C)C)n2)cc1-n1cnc(C2CC2)c1`, the % of control came to 89% in [9]; 100% in assay [10]; 100% in assay [11]; 100% in assay [12]; 93% in assay [13]; 100% in assay [14]. This compound also showed a % of control in assay [15] of 100%.

The compound `CCC(=O)N1CCN(c2ccc(-n3c(=O)ccc4cnc5ccc(-c6cnc7ccccc7c6)cc5c43)cc2C(F)(F)F)CC1` yielded a % of control in assay [16] of 49%.

Turning to `C=CC(=O)Nc1cc(-n2c(=O)ccc3cnc4ccc(-c5ccc(NS(C)(=O)=O)cc5)cc4c32)ccc1C`, the % of control in assay [17] (at 1 µM) was found to be 100%; in [17] (at 10 µM), 100%; in assay [18] (at 1 µM), 75%; in assay [18] (at 10 µM), 44%.

With `COCC(=O)NC/C=C/c1ccc2ncnc(Nc3ccc(Oc4ccc(C)nc4)c(C)c3)c2c1` [CP-724714], the % of control in assay [19] and in assay [20] was 100% in each case.
